Earlier results, collected in patent US5614503A, “Amphipathic nucleic acid transporter” (Aronex Pharmaceuticals, Inc., priority 1995, dated 1997).

Columns and labels:
animal cells = details: some types of animal cells; Felgner, 1990
[1] = Moore et al., 1993

Compound	effect on uptake kinetics of nucleic acids (animal cells)	antibiotic activity [1]
CCCCCCCC/C=C\CCCCCCCCOCC(C[N+](C)(C)C)OCCCCCCCC/C=C\CCCCCCCC (centres unmarked) [DOTMA]	can improve the uptake kinetics of nucleic acids	
CC(C)[C@@H](CC[C@@H](C)[C@H]1CC[C@H]2[C@@H]3[C@H](O)C[C@H]4C[C@@H](NCCCNCCCCN)CC[C@]4(C)[C@H]3CC[C@]12C)OS(=O)(=O)O [squalamine]		broad-spectrum antibiotic
